Read-outs that look alike come from different tables or passages of the source.
What was measured:
[1] = Reverse-phase thin-layer chromatographic lipophilicity (RF, RM0); assay type: physicochemical; conditions: for RM0: intercept of RM = RM0 + bC; for b: slope of RM = RM0 + bC; for RF, Methanol/Water/Hydrochloric acid (conc.), mobile phase I / RF, Dioxane/Water/Hydrochloric acid (conc.), mobile phase II / RF, Methanol/Water/Hydrochloric acid (conc.), mobile phase II / RF, Acetone/Water/Hydrochloric acid (conc.), mobile phase III / RF, Dioxane/Water/Hydrochloric acid (conc.), mobile phase III / RF, Methanol/Water/Hydrochloric acid (conc.), mobile phase III / RF, Dioxane/Water/Hydrochloric acid (conc.), mobile phase IV / RF, Acetone/Water/Hydrochloric acid (conc.), mobile phase IV / RF, Methanol/Water/Hydrochloric acid (conc.), mobile phase IV / RF, Acetone/Water/Hydrochloric acid (conc.), mobile phase IX / RF, Methanol/Water/Hydrochloric acid (conc.), mobile phase IX / RF, Dioxane/Water/Hydrochloric acid (conc.), mobile phase V / RF, Acetone/Water/Hydrochloric acid (conc.), mobile phase V / RF, Methanol/Water/Hydrochloric acid (conc.), mobile phase V / RF, Dioxane/Water/Hydrochloric acid (conc.), mobile phase VI / RF, Acetone/Water/Hydrochloric acid (conc.), mobile phase VI / RF, Methanol/Water/Hydrochloric acid (conc.), mobile phase VI / RF, Acetone/Water/Hydrochloric acid (conc.), mobile phase VII / RF, Methanol/Water/Hydrochloric acid (conc.), mobile phase VII / RF, Acetone/Water/Hydrochloric acid (conc.), mobile phase VIII / RF, Methanol/Water/Hydrochloric acid (conc.), mobile phase VIII: RP-18 silica; for RF, Methanol/Water/Hydrochloric acid (conc.), mobile phase I: I = 90%MeOH/5%H2O/5%HCl; for RF, Dioxane/Water/Hydrochloric acid (conc.), mobile phase II: II = 80%Dioxane/15%H2O/5%HCl; for RF, Methanol/Water/Hydrochloric acid (conc.), mobile phase II: II = 85%MeOH/10%H2O/5%HCl; for RF, Acetone/Water/Hydrochloric acid (conc.), mobile phase III: III = 70%AC/25%H2O/5%HCl; for RF, Dioxane/Water/Hydrochloric acid (conc.), mobile phase III: III = 70%Dioxane/25%H2O/5%HCl; for RF, Methanol/Water/Hydrochloric acid (conc.), mobile phase III: III = 80%MeOH/15%H2O/5%HCl; for RF, Dioxane/Water/Hydrochloric acid (conc.), mobile phase IV: IV = 60%Dioxane/35%H2O/5%HCl; for RF, Acetone/Water/Hydrochloric acid (conc.), mobile phase IV: IV = 65%AC/30%H2O/5%HCl; for RF, Methanol/Water/Hydrochloric acid (conc.), mobile phase IV: IV = 75%MeOH/20%H2O/5%HCl; for RF, Acetone/Water/Hydrochloric acid (conc.), mobile phase IX: IX = 40%AC/55%H2O/5%HCl; for RF, Methanol/Water/Hydrochloric acid (conc.), mobile phase IX: IX = 50%MeOH/45%H2O/5%HCl; for RF, Dioxane/Water/Hydrochloric acid (conc.), mobile phase V: V = 50%Dioxane/45%H2O/5%HCl; for RF, Acetone/Water/Hydrochloric acid (conc.), mobile phase V: V = 60%AC/35%H2O/5%HCl; for RF, Methanol/Water/Hydrochloric acid (conc.), mobile phase V: V = 70%MeOH/25%H2O/5%HCl; for RF, Dioxane/Water/Hydrochloric acid (conc.), mobile phase VI: VI = 40%Dioxane/55%H2O/5%HCl; for RF, Acetone/Water/Hydrochloric acid (conc.), mobile phase VI: VI = 55%AC/40%H2O/5%HCl; for RF, Methanol/Water/Hydrochloric acid (conc.), mobile phase VI: VI = 65%MeOH/30%H2O/5%HCl; for RF, Acetone/Water/Hydrochloric acid (conc.), mobile phase VII: VII = 50%AC/45%H2O/5%HCl; for RF, Methanol/Water/Hydrochloric acid (conc.), mobile phase VII: VII = 60%MeOH/35%H2O/5%HCl; for RF, Acetone/Water/Hydrochloric acid (conc.), mobile phase VIII: VIII = 45%AC/50%H2O/5%HCl; for RF, Methanol/Water/Hydrochloric acid (conc.), mobile phase VIII: VIII = 55%MeOH/40%H2O/5%HCl
Description: Chromatographic determination of lipophilicity
Merck, Darmstadt, Germany). The mobile phase contained organic modifier (methanol, acetone or dioxane), water and hydrochloric acid.
Methanol was varied in the range […]
with an increment of 10%. […]
before chromatogram development. The solvent developing distance was 4.5 cm. Detection of […]
All experiments were performed at ambient temperature (22±2 °C). Retention parameters were calculated as previously described. […]

[2] = Ferric reducing antioxidant power (FRAP) assay; conditions: mean ± standard error of three experiments;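 also: expressed as µM Fe2+ equivalents from an FeSO4·7H2O standard curve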
Description: . All the chemicals were purchased from Sigma-Aldrich (St. Louis, MO, USA), except for tripyridyltriazine (TPTZ) (Fluka, Buchs, Switzerland) and FeCl3 (Kemika, Zagreb, Croatia). The FRAP assay was assessed according to Benzie and Strain [53] with slight procedure adjustments for 96-well microplates. The method is based on the reduction of the ferric-tripyridyltriazine (Fe^3+-TPTZ) complex to ferrous tripyridyltriazine (Fe^2+-TPTZ) by the action of electron-donating compounds at a low pH. Briefly, the FRAP reagent was prepared by mixing acetate buffer (300 mM, pH 3.6), a solution of 10 mM TPTZ in 40 mM HCl, and 20 mM FeCl3 at 10:1:1 (v/v/v). Then, 240 μL of FRAP reagent and 10 μL of sample solution were added to a 96-well plate and incubated at 37 °C for 60 min. The absorbance was measured at 593 nm using a microplate reader (Infinite M200PRO, Tecan Austria GmbH, Salzburg, Austria) against a blank. The reducing capacity was determined for 10 and 100 µM compound concentrations. […]. All measurements were performed in three independent experiments. FRAP values, denominating the reduction of ferric-tripyridyltriazine (Fe^3+-TPTZ) to ferrous tripyridyltriazine (Fe^2+-TPTZ) by 4-aminoquinolines were calculated based on a standard curve obtained using […].

recombinant human AChE = target: T1, recombinant human AChE (Homo sapiens, UniProt P22303); assay: biochemical; assay type: biochemical; conditions: for IS: IS = Ki(BChE)/Ki(AChE), IS > 1 selective to AChE
T1 construct: gift of Dr Florian Nachon (Armed Forces Biomedical Research Institute, Brétigny-sur-Orge, France)
T1 sequence (P22303 32-614): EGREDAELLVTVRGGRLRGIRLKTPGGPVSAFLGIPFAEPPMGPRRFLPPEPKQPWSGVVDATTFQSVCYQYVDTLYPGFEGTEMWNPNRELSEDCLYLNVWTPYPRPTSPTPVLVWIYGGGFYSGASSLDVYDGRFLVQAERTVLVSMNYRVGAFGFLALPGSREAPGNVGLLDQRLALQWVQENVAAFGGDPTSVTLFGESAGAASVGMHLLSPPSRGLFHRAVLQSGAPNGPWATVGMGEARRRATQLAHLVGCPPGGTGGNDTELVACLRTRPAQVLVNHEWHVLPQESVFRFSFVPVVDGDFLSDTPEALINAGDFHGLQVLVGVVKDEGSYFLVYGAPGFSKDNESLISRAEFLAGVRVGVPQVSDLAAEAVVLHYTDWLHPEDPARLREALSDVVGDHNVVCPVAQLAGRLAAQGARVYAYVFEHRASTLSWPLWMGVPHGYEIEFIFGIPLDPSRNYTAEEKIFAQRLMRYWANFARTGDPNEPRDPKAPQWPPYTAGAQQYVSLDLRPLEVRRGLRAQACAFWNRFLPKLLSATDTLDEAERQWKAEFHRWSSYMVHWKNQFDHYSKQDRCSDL
Description: (§1) Acetylthiocholine (ATCh) and 5,5′-dithiobis(2-nitrobenzoic acid) (DTNB) were purchased from Sigma-Aldrich, St. Louis, MO, USA. ATCh was dissolved in water and DTNB in 0.1 M sodium phosphate buffer (pH 7.4). The 4-aminoquinilines were dissolved in DMSO and all further dilutions were made in water.
(§2) The sources of AChE and BChE were purified human BChE and recombinant human AChE that was kindly provided by Dr Florian Nachon (Département de Toxicologie, Armed Forces Biomedical Research Institute, Brétigny-sur-Orge, France). […] The enzymes were diluted in sodium phosphate buffer 0.1 M (pH 7.4) containing 0.1% BSA.
(§3) Enzyme activities were measured spectrophotometrically using a slightly modified Ellman method, as described earlier. […] At least three inhibitor concentrations for each substrate concentration were used in at least three experiments. The apparent inhibition constant (Ki,app) was calculated using the Hunter–Downs Equation and linear regression analysis:(1) Ki,app=vi·i/v0−vi=Ki+Ki/KS·s where the y-intercept determines the enzyme-inhibitor dissociation constant (Ki), while the x-intercept determines the enzyme-substrate dissociation constant, KS.
(§4) The Hunter–Downs Equation was used under the assumption that the substrate, due to relatively low concentrations used in experiments, would bind only to the catalytic site of the enzymes, while the inhibitors would bind to both CAS and/or PAs. This allowed the type of inhibition to be determined from Ki,app vs. substrate concentration ([S]) dependency on Hunter–Downs plot.
(§5) The final content of DMSO in the measurements was up to 0.2%. […] The measurements were performed at 25 °C on a Tecan Infinite M200Pro plate reader (Tecan Austria GmbH, Salzburg, Austria).

purified human BChE = target: T2, purified human BChE (Homo sapiens, UniProt P06276); assay: biochemical; assay type: biochemical
T2 construct: possibly also a gift of Dr Florian Nachon (the sentence is ambiguous)
T2 sequence (P06276 29-602): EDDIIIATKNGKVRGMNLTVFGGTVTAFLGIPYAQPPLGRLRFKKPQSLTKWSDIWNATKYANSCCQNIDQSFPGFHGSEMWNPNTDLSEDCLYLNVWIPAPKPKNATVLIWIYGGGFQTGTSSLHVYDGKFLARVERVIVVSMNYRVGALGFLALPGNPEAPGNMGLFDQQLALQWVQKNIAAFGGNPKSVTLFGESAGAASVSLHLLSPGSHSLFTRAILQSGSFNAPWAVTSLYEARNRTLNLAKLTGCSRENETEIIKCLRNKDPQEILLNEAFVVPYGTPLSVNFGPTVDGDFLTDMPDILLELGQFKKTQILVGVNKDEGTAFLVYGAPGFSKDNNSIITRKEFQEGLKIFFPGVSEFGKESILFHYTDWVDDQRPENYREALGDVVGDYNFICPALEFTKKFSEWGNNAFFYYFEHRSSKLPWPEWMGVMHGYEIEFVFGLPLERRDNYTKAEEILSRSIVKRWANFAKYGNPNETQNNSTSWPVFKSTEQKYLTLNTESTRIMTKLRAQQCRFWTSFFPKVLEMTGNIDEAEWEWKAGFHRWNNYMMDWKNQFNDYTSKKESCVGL
Description: as §1, §2, §3, §4, §5

[3] = Acetone/Water/Hydrochloric acid (conc.)
[4] = Dioxane/Water/Hydrochloric acid (conc.)
[5] = Methanol/Water/Hydrochloric acid (conc.)
[6] = log (Ki/µM AChE), read-out: Y Measured 1 log(ki)Ache (converted)
[7] = ± standard error, 25 °C, ATCh substrate, read-out: Ki AChE
[8] = logarithm of Ki in µM, BChE, dependent variable of the QSAR model, read-out: Y Measured 2 log(ki)Bche, log (Ki/µM BChE) (converted)
[9] = ± standard error, 25 °C, ATCh substrate, read-out: Ki BChE

Q: With FC(F)(F)c1ccc2c(NCCNCC34CC5CC(CC(C5)C3)C4)ccnc2c1 [Compound 6] as the compound, how does the RM0 [1, 3] read?
A: The RM0 was 2.0143.

Q: And the b [1, 3]?
A: The b was 3.169.

Q: What about the RM0 [1, 4] of the same compound?
A: The RM0 was 0.9723.

Q: What about the b [1, 4] of the same compound?
A: Its b is 1.909.

Q: And the RM0 [1, 5]?
A: The RM0 was 2.421.

Q: And the b [1, 5]?
A: Its b is 3.208.

Q: What about the “RF, Methanol/Water/Hydrochloric acid (conc.), mobile phase I” value [1] of the same compound?
A: Its value is 0.73.

Q: What about the “RF, Dioxane/Water/Hydrochloric acid (conc.), mobile phase II” value [1] of the same compound?
A: Its value is 0.74.

Q: And the “RF, Methanol/Water/Hydrochloric acid (conc.), mobile phase II” value [1]?
A: Its value is 0.67.

Q: And the “RF, Acetone/Water/Hydrochloric acid (conc.), mobile phase III” value [1]?
A: The value was 0.57.

Q: What about the “RF, Dioxane/Water/Hydrochloric acid (conc.), mobile phase III” value [1] of the same compound?
A: Its value is 0.7.

Q: And the “RF, Methanol/Water/Hydrochloric acid (conc.), mobile phase III” value [1]?
A: Its value is 0.51.

Q: And the “RF, Dioxane/Water/Hydrochloric acid (conc.), mobile phase IV” value [1]?
A: Its value is 0.7.

Q: What about the “RF, Acetone/Water/Hydrochloric acid (conc.), mobile phase IV” value [1] of the same compound?
A: The value was 0.53.

Q: What about the “RF, Methanol/Water/Hydrochloric acid (conc.), mobile phase IV” value [1] of the same compound?
A: Its value is 0.53.

Q: What about the “RF, Acetone/Water/Hydrochloric acid (conc.), mobile phase IX” value [1] of the same compound?
A: Its value is 0.11.

Q: What about the “RF, Methanol/Water/Hydrochloric acid (conc.), mobile phase IX” value [1] of the same compound?
A: Its value is 0.11.

Q: And the “RF, Dioxane/Water/Hydrochloric acid (conc.), mobile phase V” value [1]?
A: Its value is 0.49.

Q: What about the “RF, Acetone/Water/Hydrochloric acid (conc.), mobile phase V” value [1] of the same compound?
A: The value was 0.45.

Q: What about the “RF, Methanol/Water/Hydrochloric acid (conc.), mobile phase V” value [1] of the same compound?
A: The value was 0.44.

Q: What about the “RF, Dioxane/Water/Hydrochloric acid (conc.), mobile phase VI” value [1] of the same compound?
A: Its value is 0.33.

Q: And the “RF, Acetone/Water/Hydrochloric acid (conc.), mobile phase VI” value [1]?
A: The value was 0.36.

Q: And the “RF, Methanol/Water/Hydrochloric acid (conc.), mobile phase VI” value [1]?
A: Its value is 0.39.

Q: And the “RF, Acetone/Water/Hydrochloric acid (conc.), mobile phase VII” value [1]?
A: The value was 0.32.

Q: And the “RF, Methanol/Water/Hydrochloric acid (conc.), mobile phase VII” value [1]?
A: Its value is 0.23.

Q: What about the “RF, Acetone/Water/Hydrochloric acid (conc.), mobile phase VIII” value [1] of the same compound?
A: Its value is 0.24.

Q: What about the “RF, Methanol/Water/Hydrochloric acid (conc.), mobile phase VIII” value [1] of the same compound?
A: The value was 0.18.

Q: What about the FRAP ([2]; 10 µM compound) of the same compound?
A: The FRAP was 4.6 ± 0.8 µM.

Q: And the FRAP ([2]; 100 µM compound)?
A: Its FRAP is 25 ± 6 µM.

Q: And the IS (recombinant human AChE)?
A: The IS was 2.9.

Q: And the Ki (recombinant human AChE; [6])?
A: Its Ki is 1.2 µM.

Q: And the Ki (recombinant human AChE; [7])?
A: The Ki was 1.2 ± 0.1 µM.

Q: And the Ki (purified human BChE; [8])?
A: The Ki was 3.5 µM.

Q: And the Ki (purified human BChE; [9])?
A: Its Ki is 3.5 ± 0.3 µM.

Q: Which results are given for FC(F)(F)c1ccc2c(NCCCNCC34CC5CC(CC(C5)C3)C4)ccnc2c1 [Compound 7]?
A: RM0 [1, 3]: 2.012; b [1, 3]: 3.156; RM0 [1, 4]: 0.9445; b [1, 4]: 1.874; RM0 [1, 5]: 2.606; b [1, 5]: 3.427; RF, Methanol/Water/Hydrochloric acid (conc.), mobile phase I [1]: 0.73; RF, Dioxane/Water/Hydrochloric acid (conc.), mobile phase II [1]: 0.74; RF, Methanol/Water/Hydrochloric acid (conc.), mobile phase II [1]: 0.67; RF, Acetone/Water/Hydrochloric acid (conc.), mobile phase III [1]: 0.57; RF, Dioxane/Water/Hydrochloric acid (conc.), mobile phase III [1]: 0.7; RF, Methanol/Water/Hydrochloric acid (conc.), mobile phase III [1]: 0.51; RF, Dioxane/Water/Hydrochloric acid (conc.), mobile phase IV [1]: 0.7; RF, Acetone/Water/Hydrochloric acid (conc.), mobile phase IV [1]: 0.54; RF, Methanol/Water/Hydrochloric acid (conc.), mobile phase IV [1]: 0.51; RF, Acetone/Water/Hydrochloric acid (conc.), mobile phase IX [1]: 0.11; RF, Methanol/Water/Hydrochloric acid (conc.), mobile phase IX [1]: 0.09; RF, Dioxane/Water/Hydrochloric acid (conc.), mobile phase V [1]: 0.51; RF, Acetone/Water/Hydrochloric acid (conc.), mobile phase V [1]: 0.42; RF, Methanol/Water/Hydrochloric acid (conc.), mobile phase V [1]: 0.44; RF, Dioxane/Water/Hydrochloric acid (conc.), mobile phase VI [1]: 0.33; RF, Acetone/Water/Hydrochloric acid (conc.), mobile phase VI [1]: 0.36; RF, Methanol/Water/Hydrochloric acid (conc.), mobile phase VI [1]: 0.36; RF, Acetone/Water/Hydrochloric acid (conc.), mobile phase VII [1]: 0.32; RF, Methanol/Water/Hydrochloric acid (conc.), mobile phase VII [1]: 0.23; RF, Acetone/Water/Hydrochloric acid (conc.), mobile phase VIII [1]: 0.24; RF, Methanol/Water/Hydrochloric acid (conc.), mobile phase VIII [1]: 0.15; FRAP ([2]; 10 µM compound): 7.1 ± 2.1 µM; FRAP ([2]; 100 µM compound): 21 ± 7 µM; IS (recombinant human AChE): 2.4; Ki (recombinant human AChE; [6]): 1.1 µM; Ki (recombinant human AChE; [7]): 1.1 µM; Ki (purified human BChE; [8]): 2.6 µM; Ki (purified human BChE; [9]): 2.6 ± 0.2 µM
